The record followed here is patent US20230080054A1 (ILDONG PHARMACEUTICAL CO., LTD., priority 2021, published 2023).

The test concerns the target T1, human ANO6 (Homo sapiens, UniProt Q4KMQ2).
T1 construct: expressed in transfected cells
T1 sequence (Q4KMQ2 1-931 isoform Q4KMQ2-2): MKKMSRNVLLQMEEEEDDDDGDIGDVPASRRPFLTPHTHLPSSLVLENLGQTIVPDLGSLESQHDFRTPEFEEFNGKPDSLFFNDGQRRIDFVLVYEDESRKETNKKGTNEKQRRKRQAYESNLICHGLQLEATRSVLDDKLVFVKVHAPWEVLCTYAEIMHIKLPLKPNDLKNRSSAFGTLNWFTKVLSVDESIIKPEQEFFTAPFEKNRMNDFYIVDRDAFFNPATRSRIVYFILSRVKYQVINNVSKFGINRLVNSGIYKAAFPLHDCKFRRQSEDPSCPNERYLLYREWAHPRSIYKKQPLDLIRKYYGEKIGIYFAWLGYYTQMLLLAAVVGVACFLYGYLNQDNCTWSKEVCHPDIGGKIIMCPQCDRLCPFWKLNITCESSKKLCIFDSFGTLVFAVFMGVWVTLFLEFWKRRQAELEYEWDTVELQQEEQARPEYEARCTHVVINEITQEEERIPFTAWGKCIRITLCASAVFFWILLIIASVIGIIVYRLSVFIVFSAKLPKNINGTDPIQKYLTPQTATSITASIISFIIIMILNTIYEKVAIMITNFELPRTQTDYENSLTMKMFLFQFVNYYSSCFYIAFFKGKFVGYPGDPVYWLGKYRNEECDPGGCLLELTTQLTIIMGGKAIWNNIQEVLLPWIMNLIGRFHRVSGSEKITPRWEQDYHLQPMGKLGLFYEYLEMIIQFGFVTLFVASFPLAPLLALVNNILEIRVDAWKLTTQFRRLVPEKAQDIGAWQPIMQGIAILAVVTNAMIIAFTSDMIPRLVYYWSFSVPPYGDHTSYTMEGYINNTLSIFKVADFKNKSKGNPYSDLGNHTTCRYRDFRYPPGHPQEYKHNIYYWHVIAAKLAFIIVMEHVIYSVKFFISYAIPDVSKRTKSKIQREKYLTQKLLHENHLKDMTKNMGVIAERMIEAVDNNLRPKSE
Put plainly: LACT C2 assay (phosphatidylserine scramblase function assay). Type of test: cell-based. The settings on record: FRT cells expressing human ANO6, 10 μM ionomycin; for inhibition at 0.1 µM: test compound 100 nM, read-out: Inhibition Level 100 nM; for inhibition at 1 µM: test compound 1 μM, read-out: Inhibition Level 1 μM. From the text:
Phosphatidylserine Scramblase Function Assay
1. Materials and Instruments
Ionomycin (Alomonelab, cat. #I-700), DAPI (Sigma-Aldrich, cat. #D8417), paraformaldehyde (Biosesang, cat. #P2031), Lionheart FX Automated Microscope (BioTek, Winooski), Python3 (Python Software Foundation), and OpenCV (Open Source Computer Vision Library).
Fisher rat thyroid (FRT) cells stably expressing human ANO6 (GenBank accession no. NP_001191732.1, provided by J. H. Nam, Dongguk University College of Medicine, Korea) were grown in DMEM/Ham's F-12 (1:1) medium with 10% FBS, 2 mM L-549 glutamine, 100 units/mL penicillin, and 100 μg/mL streptomycin at 37° C. and 5% CO2.
FRT cells stably expressing human ANO6 were plated in 96 well black-walled microplates at a density of 2×10^4 cells/well. After 24 hours incubation, cells were treated with the test compound (dissolved in DMSO) were treated to each well to become 1% v/v DMSO for 10 minutes, then 10 μM of ionomycin was applied. Finally each well was washed with 200 μL PBS after 10 minutes. After washout, the phosphatidylserine and nuclei were stained with PBS containing 500 nM Lactadherin-C2 (Lact-C2)-GFP, then cells were washed with 200 μL PBS. Cells were fixed with 4% paraformaldehyde for 5 minutes at room temperature. For morphological analysis, some cells were stained with fluorescently labelled DAPI for 15 minutes at room temperature. Quantitative analysis of the fluorescence intensity of Lact-C2-GFP was performed with Python3 and OpenCV. OpenCV was used to remove background and noise pixels, and the sum of all remaining pixel values was used to evaluate the fluorescence intensity of Lact-C2-GFP.
The inhibitory activity (%) of each of the test compounds was obtained by the following steps. In each row of 96 well plate, the inhibitory activity of each of the test compounds was calculated as percentages. The inhibitory activity of a negative control group to which neither compounds nor ionomycin were treated was set to be 100%, and the inhibitory activity of a positive control group to which ionomycin was treated and compounds were not treated was set to be 0%. The assay was performed in triplicate, and the results were averaged.

Usually inhibition stands for the drop in the measured response relative to a control, in per cent.

For the compound `CC(C)(NC(=O)c1cccc(Nc2ccc(-c3ccccc3)nn2)c1)c1ccc(F)cc1` [Compound 213, N-(2-(4-fluorophenyl)propan-2-yl)-3-((6-phenylpyridazin-3-yl)amino)benzamide], the inhibition at 0.1 µM is < 30% and the inhibition at 1 µM was 30 to 60%.

For `O=C(N[C@@H]1C[C@H]1c1ccccc1)c1ccnc(Nc2ccc(-c3ccccc3)cn2)c1` [Compound 149, N-((1R,2S)-2-phenylcyclopropyl)-2-((5-phenylpyridin-2-yl)amino)isonicotinamide], the inhibition at 0.1 µM is < 30% and the inhibition at 1 µM is ≥ 60%. For `N#Cc1cccc(NC(=O)c2cccc(Nc3ncc(-c4cccc(F)c4)cn3)c2)c1` [Compound 136, N-(3-cyanophenyl)-3-((5-(3-fluorophenyl)pyrimidin-2-yl)amino)benzamide], the inhibition at 0.1 µM was < 30% and the inhibition at 1 µM is ≥ 60%. With `N#CC1(NC(=O)c2cccc(Nc3ccc(-c4ccccc4)nn3)c2)CC1` [Compound 225, N-(1-cyanocyclopropyl)-3-((6-phenylpyridazin-3-yl)amino)benzamide], the inhibition at 0.1 µM is < 30% and the inhibition at 1 µM was 30 to 60%. In the case of `O=C(NCCc1ccc(F)cc1)c1cccc(Nc2ccc(-c3ccccc3)nn2)c1` [Compound 198, N-(4-fluorophenethyl)-3-((6-phenylpyridazin-3-yl)amino)benzamide], the inhibition at 0.1 µM was < 30% and the inhibition at 1 µM is ≥ 60%. For `O=C(NCc1c(F)cc(F)cc1F)c1cccc(Nc2ncc(-c3cccc(F)c3)cn2)c1` [Compound 205, 3-((5-(3-fluorophenyl)pyrimidin-2-yl)amino)-N-(2,4,6-trifluorobenzyl)benzamide], the inhibition at 0.1 µM was < 30% and the inhibition at 1 µM is 30 to 60%. Consider `O=C(Nc1nnc(-c2ccccc2)[nH]1)c1cccc(Nc2ncc(-c3cccc(F)c3)cn2)c1` [Compound 194, 3-((5-(3-fluorophenyl)pyrimidin-2-yl)amino)-N-(5-phenyl-4H-1,2,4-triazol-3-yl)benzamide], for which the inhibition at 0.1 µM was < 30%. On to `CN1CCN(c2ccc(CNC(=O)c3cccc(Nc4ccc(-c5ccccc5)nn4)c3)cc2)CC1` [Compound 197, N-(4-(4-methylpiperazin-1-yl)benzyl)-3-((6-phenylpyridazin-3-yl)amino)benzamide], for which the inhibition at 0.1 µM is < 30% and the inhibition at 1 µM is < 30%.

For `COc1ccc([C@@H]2C[C@H]2NC(=O)c2cccc(Nc3ccc(-c4ccccc4)nn3)c2)cc1` [Compound 236, N-((1R,2S)-2-(4-methoxyphenyl)cyclopropyl)-3-((6-phenylpyridazin-3-yl)amino)benzamide], the inhibition at 0.1 µM was < 30% and the inhibition at 1 µM is ≥ 60%. For `O=C(NCc1ccc(Cl)cc1Cl)c1cccc(Nc2ncc(-c3cccc(F)c3)cn2)c1` [Compound 207, N-(2,4-dichlorobenzyl)-3-((5-(3-fluorophenyl)pyrimidin-2-yl)amino)benzamide], in that order: < 30% and 30 to 60%. For `Cc1cc(F)ccc1CNC(=O)c1cccc(Nc2ccc(-c3ccccc3)nn2)c1` [Compound 210, N-(4-fluoro-2-methylbenzyl)-3-((6-phenylpyridazin-3-yl)amino)benzamide], in that order: < 30% and ≥ 60%. Regarding `O=C(NCC1(O)CC1)c1cccc(Nc2ccc(-c3ccccc3)nn2)c1` [Compound 237, N-((1-hydroxycyclopropyl)methyl)-3-((6-phenylpyridazin-3-yl)amino)benzamide], the inhibition at 0.1 µM was < 30% and the inhibition at 1 µM was < 30%. With `O=C(Nc1cccc(F)c1)c1cccc(Nc2ccc(-c3ccncc3)cc2)c1` [Compound 162, N-(3-fluorophenyl)-3-((4-(pyridin-4-yl)phenyl)amino)benzamide], the inhibition at 0.1 µM is < 30% and the inhibition at 1 µM is ≥ 60%.

With `CN1CCN(Cc2ccc(NC(=O)c3cccc(Nc4ncc(-c5cccc(F)c5)cn4)c3)cc2)CC1` [Compound 135, 3-((5-(3-fluorophenyl)pyrimidin-2-yl)amino)-N-(4-((4-methylpiperazin-1-yl)methyl)phenyl)benzamide], the inhibition at 0.1 µM was < 30% and the inhibition at 1 µM was 30 to 60%. On to `Nc1ccccc1NC(=O)c1cccc(Nc2ccc(-c3cccc(F)c3)cn2)c1` [Compound 143, N-(2-aminophenyl)-3-((5-(3-fluorophenyl)pyridin-2-yl)amino)benzamide], for which the inhibition at 0.1 µM was < 30% and the inhibition at 1 µM lay within 30 to 60%. As for `N#CC1(NC(=O)c2cccc(Nc3ccc(-c4cccc(F)c4)nn3)c2)CC1` [Compound 223, N-(1-cyanocyclopropyl)-3-((6-(3-fluorophenyl)pyridazin-3-yl)amino)benzamide], the inhibition at 0.1 µM is < 30% and the inhibition at 1 µM is 30 to 60%. Consider `Cc1ccc(CNC(=O)c2cccc(Nc3ncc(-c4cccc(F)c4)cn3)c2)cc1` [Compound A97], for which the inhibition at 0.1 µM is < 30% and the inhibition at 1 µM is < 30%. For `O=C(NCc1ccc(C(F)(F)F)cc1)c1cccc(Nc2ncc(-c3cccc(F)c3)cn2)c1` [Compound 202, 3-((5-(3-fluorophenyl)pyrimidin-2-yl)amino)-N-(4-(trifluoromethyl)benzyl)benzamide], the inhibition at 0.1 µM is < 30% and the inhibition at 1 µM lay in the range of 30 to 60%. Consider `CCN1CCN(c2cc(F)ccc2CNC(=O)c2cccc(Nc3ccc(-c4ccccc4)nn3)c2)CC1` [Compound 220, N-(2-(4-ethylpiperazin-1-yl)-4-fluorobenzyl)-3-((6-phenylpyridazin-3-yl)amino)benzamide], for which the inhibition at 0.1 µM lay within 30 to 60%.

Regarding `O=C(Nc1cccc([N+](=O)[O-])c1)c1cccc(Nc2ncc(-c3cccc(F)c3)cn2)c1` [Compound 137, 3-((5-(3-fluorophenyl)pyrimidin-2-yl)amino)-N-(3-nitrophenyl)benzamide], the inhibition at 0.1 µM was < 30% and the inhibition at 1 µM is ≥ 60%. On to `O=C(NCc1ccc(F)cc1)c1cccc(Nc2ncc(-c3cccc(F)c3)cn2)c1` [Compound A96], for which the inhibition at 0.1 µM was < 30% and the inhibition at 1 µM fell in the range of 30 to 60%. On the same counts, the results for `Cc1ccc(CCNC(=O)c2cccc(Nc3ncc(-c4cccc(F)c4)cn3)c2)o1` [Compound 151, 3-((5-(3-fluorophenyl)pyrimidin-2-yl)amino)-N-(2-(5-methylfuran-2-yl)ethyl)benzamide] are < 30% and < 30%. On to `O=C(NCc1ccccc1Cl)c1cccc(Nc2ncc(-c3cccc(F)c3)cn2)c1` [Compound A98], for which the inhibition at 0.1 µM was < 30% and the inhibition at 1 µM is 30 to 60%. As for `O=C(NCc1ccc(F)c(F)c1)c1cccc(Nc2ccc(-c3ccccc3)nn2)c1` [Compound 230, N-(3,4-difluorobenzyl)-3-((6-phenylpyridazin-3-yl)amino)benzamide], the inhibition at 0.1 µM is < 30% and the inhibition at 1 µM was in the range of 30 to 60%. `O=C(N[C@@H]1C[C@H]1c1ccccc1)c1cccc(Nc2nnc(-c3ccccc3)o2)c1` [Compound 159, 3-((5-phenyl-1,3,4-oxadiazol-2-yl)amino)-N-((1R,2S)-2-phenylcyclopropyl)benzamide]: the inhibition at 0.1 µM was < 30% and the inhibition at 1 µM is 30 to 60%.
